Reference: the NIST ThermoML archive (doi:10.1021/acs.jced.6b00455)

Assay: mn = molality of the nth substance listed, in mol/kg
Details: 101 kPa, Liquid, Alternating current cell with electrodes

C[N+](C)(C)CCO.O=C([O-])C(F)(F)C(F)(F)C(F)(F)C(F)(F)C(F)(F)F [(2-hydroxyethyl)trimethylammonium perfluorohexanoate] + O
Details | electrical conductivity [S/m]
293.15 K, m1 = 0.000375 | 0.0022
293.15 K, m1 = 0.000696 | 0.0041
293.15 K, m1 = 0.001138 | 0.0071
293.15 K, m1 = 0.001477 | 0.0092
293.15 K, m1 = 0.001847 | 0.0114
293.15 K, m1 = 0.002373 | 0.0146
293.15 K, m1 = 0.00271 | 0.0166
293.15 K, m1 = 0.003146 | 0.0191
293.15 K, m1 = 0.003565 | 0.0215
293.15 K, m1 = 0.003898 | 0.0234
293.15 K, m1 = 0.004204 | 0.0251
293.15 K, m1 = 0.004601 | 0.0273
293.15 K, m1 = 0.00507 | 0.03
293.15 K, m1 = 0.00539 | 0.0318
293.15 K, m1 = 0.005815 | 0.034
293.15 K, m1 = 0.006239 | 0.0364
293.15 K, m1 = 0.00662 | 0.0384
293.15 K, m1 = 0.007072 | 0.0408
293.15 K, m1 = 0.007377 | 0.0425
293.15 K, m1 = 0.007726 | 0.0443
293.15 K, m1 = 0.008233 | 0.047
293.15 K, m1 = 0.008702 | 0.0493
293.15 K, m1 = 0.009174 | 0.0517
293.15 K, m1 = 0.009518 | 0.0535
293.15 K, m1 = 0.009916 | 0.0557
293.15 K, m1 = 0.01043 | 0.0585
293.15 K, m1 = 0.01075 | 0.0607
293.15 K, m1 = 0.01135 | 0.0637
293.15 K, m1 = 0.01181 | 0.0666
293.15 K, m1 = 0.01223 | 0.0687
298.15 K, m1 = 0.00055 | 0.0043
298.15 K, m1 = 0.001005 | 0.0076
298.15 K, m1 = 0.001703 | 0.0126
298.15 K, m1 = 0.002219 | 0.0163
298.15 K, m1 = 0.002829 | 0.0204
298.15 K, m1 = 0.003309 | 0.0241
298.15 K, m1 = 0.003767 | 0.0269
298.15 K, m1 = 0.00423 | 0.0305
298.15 K, m1 = 0.004871 | 0.0338
298.15 K, m1 = 0.005471 | 0.0376
298.15 K, m1 = 0.005971 | 0.0408
298.15 K, m1 = 0.006435 | 0.0436
298.15 K, m1 = 0.007097 | 0.0477
298.15 K, m1 = 0.007791 | 0.0519
298.15 K, m1 = 0.008432 | 0.0557
298.15 K, m1 = 0.008992 | 0.0589
298.15 K, m1 = 0.009929 | 0.0652
298.15 K, m1 = 0.01068 | 0.0683
298.15 K, m1 = 0.0118 | 0.0747
298.15 K, m1 = 0.01243 | 0.0781
298.15 K, m1 = 0.01316 | 0.0821
298.15 K, m1 = 0.01446 | 0.0892
303.15 K, m1 = 0.000466 | 0.0041
303.15 K, m1 = 0.000808 | 0.0072
303.15 K, m1 = 0.001191 | 0.0104
303.15 K, m1 = 0.001576 | 0.0137
303.15 K, m1 = 0.002245 | 0.0181
303.15 K, m1 = 0.002642 | 0.0212
303.15 K, m1 = 0.00302 | 0.0242
303.15 K, m1 = 0.003455 | 0.0274
303.15 K, m1 = 0.003946 | 0.0311
303.15 K, m1 = 0.004412 | 0.0342
303.15 K, m1 = 0.004852 | 0.0375
303.15 K, m1 = 0.00528 | 0.0407
303.15 K, m1 = 0.005774 | 0.0442
303.15 K, m1 = 0.006137 | 0.0465
303.15 K, m1 = 0.006412 | 0.0486
303.15 K, m1 = 0.006786 | 0.0514
303.15 K, m1 = 0.00737 | 0.0557
303.15 K, m1 = 0.007781 | 0.0587
303.15 K, m1 = 0.008049 | 0.0605
303.15 K, m1 = 0.008511 | 0.0638
303.15 K, m1 = 0.008888 | 0.0663
303.15 K, m1 = 0.009262 | 0.0691
303.15 K, m1 = 0.009766 | 0.0727
303.15 K, m1 = 0.01022 | 0.0763
308.15 K, m1 = 0.00032 | 0.0028
308.15 K, m1 = 0.000664 | 0.006
308.15 K, m1 = 0.000979 | 0.0086
308.15 K, m1 = 0.001217 | 0.0105
308.15 K, m1 = 0.001449 | 0.0125
308.15 K, m1 = 0.001666 | 0.0142
308.15 K, m1 = 0.002016 | 0.017
308.15 K, m1 = 0.00224 | 0.0188
308.15 K, m1 = 0.002547 | 0.0213
308.15 K, m1 = 0.002821 | 0.0235
308.15 K, m1 = 0.003227 | 0.0266
308.15 K, m1 = 0.003473 | 0.0285
308.15 K, m1 = 0.003909 | 0.0318
308.15 K, m1 = 0.004306 | 0.0348
308.15 K, m1 = 0.004503 | 0.0365
308.15 K, m1 = 0.004751 | 0.0383
308.15 K, m1 = 0.005079 | 0.0408
308.15 K, m1 = 0.005473 | 0.0437
308.15 K, m1 = 0.005677 | 0.0452
308.15 K, m1 = 0.005898 | 0.0468
308.15 K, m1 = 0.006135 | 0.0484
308.15 K, m1 = 0.006462 | 0.0505
308.15 K, m1 = 0.006775 | 0.0522
308.15 K, m1 = 0.006992 | 0.0537
308.15 K, m1 = 0.007243 | 0.0556
308.15 K, m1 = 0.00746 | 0.0572
308.15 K, m1 = 0.007893 | 0.0603
308.15 K, m1 = 0.008273 | 0.063
308.15 K, m1 = 0.008535 | 0.0647
308.15 K, m1 = 0.008941 | 0.0676
308.15 K, m1 = 0.009261 | 0.0697
308.15 K, m1 = 0.009516 | 0.0711
308.15 K, m1 = 0.009886 | 0.0734
308.15 K, m1 = 0.01025 | 0.076
313.15 K, m1 = 0.00043 | 0.0042
313.15 K, m1 = 0.000832 | 0.008
313.15 K, m1 = 0.001262 | 0.012
313.15 K, m1 = 0.001627 | 0.0157
313.15 K, m1 = 0.002033 | 0.0192
313.15 K, m1 = 0.00239 | 0.0224
313.15 K, m1 = 0.002657 | 0.0247
313.15 K, m1 = 0.002904 | 0.0268
313.15 K, m1 = 0.003178 | 0.0292
313.15 K, m1 = 0.003443 | 0.0314
313.15 K, m1 = 0.003771 | 0.0349
313.15 K, m1 = 0.004146 | 0.038
313.15 K, m1 = 0.004519 | 0.0412
313.15 K, m1 = 0.004784 | 0.0433
313.15 K, m1 = 0.005179 | 0.0467
313.15 K, m1 = 0.005436 | 0.0487
313.15 K, m1 = 0.005698 | 0.051
313.15 K, m1 = 0.006109 | 0.0544
313.15 K, m1 = 0.006403 | 0.0567
313.15 K, m1 = 0.006614 | 0.0584
313.15 K, m1 = 0.006889 | 0.0606
313.15 K, m1 = 0.007247 | 0.0637
313.15 K, m1 = 0.007657 | 0.0669
313.15 K, m1 = 0.008021 | 0.0699
313.15 K, m1 = 0.008353 | 0.0725
313.15 K, m1 = 0.0086 | 0.0744
313.15 K, m1 = 0.008852 | 0.0763
313.15 K, m1 = 0.009114 | 0.0783
313.15 K, m1 = 0.009356 | 0.0803
313.15 K, m1 = 0.009621 | 0.0823
313.15 K, m1 = 0.009883 | 0.0842
313.15 K, m1 = 0.01024 | 0.0869
313.15 K, m1 = 0.01049 | 0.0888
